Assay results from publication PMC4147775, “Stimulation of Hepatic Apolipoprotein A-I Production by Novel Thieno-Triazolodiazepines: Roles of the Classical Benzodiazepine Receptor, PAF Receptor, and Bromodomain Binding” (Lipid insights, 2013).
Where two headings read alike, the source gives them in different places.

How the values were obtained:
[1] = Cytotoxicity: ATP level (Cell Titer Glo); type: cell-based, human; conditions: 72 hours; for ATP level in human hepatocytes: result in words
[2] = tested on: fibrosarcoma cells (HT1080); experiment: Cytotoxicity: mitochondrial membrane potential (TMRM); conditions: for IC50: read-out: mitochondrial membrane potential in fibrosarcoma cells, IC50; for mitochondrial membrane potential in fibrosarcoma cells: 100 μM, result in words
[3] = Metabolic stability in human hepatocytes; type: in vitro ADME; conditions: cryopreserved human hepatocytes, read-out: stability in human hepatocytes (% remaining after 120 min)
[4] = target: T1, human recombinant PAF receptor (Homo sapiens, UniProt P25105); experiment: Binding to PAF receptor, 3H-C16-PAF, CHO cells; conditions: for competition with labeled PAF: cells expressing the human PAF receptor, result in words (Figure 3B)
T1 construct: expressed in transfected cells; host or cells: CHO cells

[5] = target: central BZD receptor; experiment: Binding to central BZD receptor, 3H-flunitrazepam, rat cerebral cortex membranes; conditions: for competition with labeled flunitrazepam: rat brain membranes, result in words (Figure 3A)
[6] = target: T2, BRD2(1) (Homo sapiens, UniProt P25440); experiment: Protein stability shift assay (thermal shift), BRD2(1); type: binding; conditions: 10 μM ligand
T2 construct: the second as compared with the first bromodomain of these BRDs

[7] = target: T3, BRD2(2) (Homo sapiens, UniProt P25440); experiment: Protein stability shift assay (thermal shift), BRD2(2); type: binding; conditions: 10 μM ligand
T3 construct: the second as compared with the first bromodomain of these BRDs

[8] = target: T4, BRD3(1) (Homo sapiens, UniProt Q15059); experiment: Protein stability shift assay (thermal shift), BRD3(1); type: binding; conditions: 10 μM ligand
T4 construct: the second as compared with the first bromodomain of these BRDs

[9] = target: T5, BRD4(2) (Homo sapiens, UniProt O60885); experiment: Protein stability shift assay (thermal shift), BRD4(2); type: binding; conditions: 10 μM ligand
T5 construct: the second as compared with the first bromodomain of these BRDs

[10] = target: T6, BRDT(1) (Homo sapiens, UniProt Q58F21); experiment: Protein stability shift assay (thermal shift), BRDT(1); type: binding; conditions: 10 μM ligand
T6 construct: the second as compared with the first bromodomain of these BRDs

[11] = target: T7, BRDT(2) (Homo sapiens, UniProt Q58F21); experiment: Protein stability shift assay (thermal shift), BRDT(2); type: binding; conditions: 10 μM ligand
T7 construct: the second as compared with the first bromodomain of these BRDs

[12] = target: T8, BAZ2B (Homo sapiens, UniProt Q9UIF8); experiment: Protein stability shift assay (thermal shift), BAZ2B; type: binding; conditions: 10 μM ligand
T8 construct: Thermal shift (Δtm^obs) of human bromodomains in the presence of 10 μM compound
T8 sequence (Q9UIF8 2060-2164 limits assumed): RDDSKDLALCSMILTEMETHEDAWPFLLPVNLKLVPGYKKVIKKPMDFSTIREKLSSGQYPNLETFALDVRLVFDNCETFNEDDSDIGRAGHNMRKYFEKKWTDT

[13] = target: T9, CREBBP (Homo sapiens, UniProt Q92793); experiment: Protein stability shift assay (thermal shift), CREBBP; type: binding; conditions: 10 μM ligand
T9 construct: Thermal shift (Δtm^obs) of human bromodomains in the presence of 10 μM compound

[14] = target: T10, PB1(5) (Homo sapiens, UniProt Q86U86); experiment: Protein stability shift assay (thermal shift), PB1(5); type: binding; conditions: 10 μM ligand
T10 construct: Thermal shift (Δtm^obs) of human bromodomains in the presence of 10 μM compound

[15] = target: T11, PCAF (Homo sapiens, UniProt Q92831); experiment: Protein stability shift assay (thermal shift), PCAF; type: binding; conditions: 10 μM ligand
T11 construct: Thermal shift (Δtm^obs) of human bromodomains in the presence of 10 μM compound
T11 sequence (Q92831 723-827 limits assumed): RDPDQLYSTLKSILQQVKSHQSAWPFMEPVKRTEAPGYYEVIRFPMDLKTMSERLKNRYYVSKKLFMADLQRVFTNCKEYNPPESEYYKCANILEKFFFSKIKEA

[16] = tested on: apoA-I production by primary human hepatocytes; experiment: apoA-I production by primary human hepatocytes (ELISA); type: cell-based; conditions: cultured human hepatocytes, 72 hours, maximal stimulation
[17] = tested on: apoA-I production by Hep-G2 cells; experiment: apoA-I production by HepG2 cells (ELISA); type: cell-based, human; conditions: result in words (Figure 5)
Experimental: On the day of the experiment, supernatant medium was discarded and replaced by a solution of test compounds in HCM™ medium, which was prepared from DMSO stock solutions immediately before use. Stock solution concentrations assured that DMSO never exceeded 0.1% in the assay, as DMSO alone exerts significant effects on hepatocyte gene expression. Each concentration was run in triplicate whereas multiple wells were prepared for vehicle (DMSO) controls. The cells were cultured in the presence of the studied compounds and DMSO control for 72 hours at 37°C in 5% CO2 in air. The supernatants were replaced by a fresh dilution of test compounds after 24 hours and 48 hours, respectively. […]
After removal of the supernatants after 72 hours, all wells were washed 3 times with 200 μL isotonic 0.29 MD-mannitol and 25 μL d H2O was added to each well. The protein content of each well was determined using the Pierce® BCA Protein Assay Kit according to kit instructions and calculated as micrograms cellular protein per well.
For apoA-I detection, the human apoA1 ELISA kit from Mabtech Nacka, Sweden (Catalog no. 3710-1H-20) was used. […] Finally, the chromogenic substrate was added, and absorbance was measured at 450 nm.
The apoA-I content of each sample was calculated using the standard curve generated with each plate and was expressed as ng apoA-I per mg of cellular protein.

[18] = target: T12, BRD3(2) (Homo sapiens, UniProt Q15059); experiment: Protein stability shift assay (thermal shift), BRD3(2); type: binding; set-up: the second as compared with the first bromodomain of these BRDs; conditions: 10 μM ligand
[19] = target: T13, BRD4(1) (Homo sapiens, UniProt O60885); experiment: Protein stability shift assay (thermal shift), BRD4(1); type: binding; set-up: the second as compared with the first bromodomain of these BRDs; conditions: 10 μM ligand
[20] = tested on: recombinant BRD3 domains; experiment: Bromodomain inhibition assay (Alphascreen), acetylated histone H4 peptide displacement, BRD3; type: biochemical; conditions: domains 1 and 2, result in words (Figure 4)
[21] = tested on: recombinant BRD4 domains; experiment: Bromodomain inhibition assay (Alphascreen), acetylated histone H4 peptide displacement, BRD4; type: biochemical; conditions: domains 1 and 2, result in words (Figure 4)
[22] = target: T12, BRD3(2); experiment: Isothermal titration calorimetry, BRD3(2); type: binding; set-up: 2 μM for the first bromodomain in BRD4 and 0.5 μM for the second bromodomain in BRD3; conditions: ITC
[23] = target: T13, BRD4(1); experiment: Isothermal titration calorimetry, BRD4(1); type: binding; set-up: 2 μM for the first bromodomain in BRD4 and 0.5 μM for the second bromodomain in BRD3; conditions: ITC
[24] = tested on: fibrosarcoma cells (HT1080); conditions: read-out: mitochondrial membrane potential, IC50, cited from earlier work
[25] = tested on: apoA-I; set-up: method as in PMID 21449977; conditions: mice transgenic for human apoA-I; cited from earlier work

T1 sequence (P25105 whole entry): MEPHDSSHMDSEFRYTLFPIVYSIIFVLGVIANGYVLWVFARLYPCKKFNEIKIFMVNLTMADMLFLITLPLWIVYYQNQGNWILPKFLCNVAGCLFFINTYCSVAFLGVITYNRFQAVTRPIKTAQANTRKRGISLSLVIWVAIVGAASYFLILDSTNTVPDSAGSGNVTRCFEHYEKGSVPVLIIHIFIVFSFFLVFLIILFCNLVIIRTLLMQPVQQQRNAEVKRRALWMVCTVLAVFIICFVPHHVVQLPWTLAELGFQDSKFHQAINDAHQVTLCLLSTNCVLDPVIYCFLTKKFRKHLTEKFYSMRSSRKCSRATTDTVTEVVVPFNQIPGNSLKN
T12 sequence (Q15059 306-415 limits assumed): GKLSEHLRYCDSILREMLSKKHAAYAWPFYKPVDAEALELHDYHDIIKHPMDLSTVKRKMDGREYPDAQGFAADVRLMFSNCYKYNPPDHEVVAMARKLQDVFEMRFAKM
T3 sequence (P25440 344-453 limits assumed): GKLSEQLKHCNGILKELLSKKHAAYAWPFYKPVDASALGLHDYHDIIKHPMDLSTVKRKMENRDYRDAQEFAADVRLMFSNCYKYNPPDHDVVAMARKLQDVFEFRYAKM
T9 sequence (Q92793 1085-1192 limits assumed): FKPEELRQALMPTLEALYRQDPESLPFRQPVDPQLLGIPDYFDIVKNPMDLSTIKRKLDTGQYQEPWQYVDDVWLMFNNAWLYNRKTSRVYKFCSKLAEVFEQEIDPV
T2 sequence (P25440 74-180 limits assumed): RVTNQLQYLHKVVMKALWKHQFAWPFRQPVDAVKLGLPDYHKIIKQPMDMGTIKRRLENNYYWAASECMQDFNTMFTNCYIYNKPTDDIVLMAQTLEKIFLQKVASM
T10 sequence (Q86U86 653-763 limits assumed): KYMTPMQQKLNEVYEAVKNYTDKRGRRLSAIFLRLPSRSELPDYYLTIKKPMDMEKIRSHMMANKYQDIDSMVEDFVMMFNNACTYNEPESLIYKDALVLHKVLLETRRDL
T4 sequence (Q15059 34-140 limits assumed): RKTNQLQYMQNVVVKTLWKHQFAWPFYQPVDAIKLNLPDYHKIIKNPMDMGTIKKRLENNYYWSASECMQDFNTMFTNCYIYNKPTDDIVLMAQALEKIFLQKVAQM

Compound | remaining at 2 h, 10 μM ([3]; donor 1, 10 μM) [%] | Thermal shift (ΔTm obs) BRD2(1) [6] | Thermal shift (ΔTm obs) BRD2(2) [7] | Thermal shift (ΔTm obs) BRD3(1) [8] | Thermal shift (ΔTm obs) BRD4(2) [9] | Thermal shift (ΔTm obs) BRDT(1) [10] | Thermal shift (ΔTm obs) BRDT(2) [11] | Thermal shift (ΔTm obs) BAZ2B [12] | Thermal shift (ΔTm obs) CREBBP [13] | Thermal shift (ΔTm obs) PB1(5) [14] | Thermal shift (ΔTm obs) PCAF [15] | stimulation of apoA-I production [16] | competition with labeled flunitrazepam [5] | competition with labeled PAF [4] | ATP level in human hepatocytes ([1]; 100 μM) | mitochondrial membrane potential in fibrosarcoma cells ([2]; 72 hours) | Thermal shift (ΔTm obs) BRD3(2) [18] | Thermal shift (ΔTm obs) BRD4(1) [19] | further results
N#CC(C#N)=NNc1ccc(OC(F)(F)F)cc1 [FCCP, reference compound] | – | – | – | – | – | – | – | – | – | – | – | – | – | – | – | – | – | – | ATP level in human hepatocytes, reduction ([1]; 100 μM): 96 ± 0.7% reduction at 100 μM (n = 2); IC50 ([2]; 72 hours): 17000 nM
O=C(O)Cc1ccccc1Nc1c(Cl)cccc1Cl [Diclofenac, reference compound] | 70 ± 10 | – | – | – | – | – | – | – | – | – | – | – | – | – | – | – | – | – | –
CCCCCCCCCCCCCCCCOC[C@H](COP(=O)([O-])OCC[N+](C)(C)C)OC(C)=O [C16-PAF, reference compound] | – | – | – | – | – | – | – | – | – | – | – | – | – | – | – | – | – | – | IC50 ([4]; 3H-C16-PAF, CHO cells expressing human recombinant PAF receptor, reference): 0.7 nM
CN1C(=O)CN=C(c2ccccc2)c2cc(Cl)ccc21 [Diazepam, reference compound] | – | – | – | – | – | – | – | – | – | – | – | – | – | – | – | – | – | – | IC50 ([5]; 3H-flunitrazepam, rat cerebral cortex membranes, reference): 20 nM
Cc1nnc2n1-c1sccc1C(c1ccc3c(c1)OCO3)=NC2 [MDCO-3783] | 97 | 0.3 | 1.8 | 1.8 | 1.9 | 0.3 | 2.4 | 0.0 | −0.1 | 0.0 | 1.9 | up to 3 fold | did not compete | only weakly displaced | no effect at 100 μM (n = 3) | no effect at 100 μM (n = 5) | 2.1 | 2.4 | effect on apoA-I production [17]: potency and efficacy comparable to that of (−)-JQ1
Cc1nnc2n1-c1sccc1C(c1ccccc1)=NC2(C)C [MDCO-3770] | – | −1.1 | 0.0 | −0.2 | 2.5 | −0.9 | 0.3 | −0.4 | −0.6 | −0.5 | 1.5 | up to 3 fold | did not compete | only weakly displaced | no effect at 100 μM (n = 3) | no effect at 100 μM (n = 5) | 5.3 | 3.3 | inhibition of binding of acetylated histone H4 peptide to BRD3 domains [20]: clearly more potent than the other 2 thieno-TZDs; inhibition of binding of acetylated histone H4 peptide to BRD4 domains [21]: clearly more potent than the other 2 thieno-TZDs; remaining at 2 h, 10 μM ([3]; donor 2, 10 μM): 97%; TΔS ([22]; BRD3(2), 15°C): 0.04 kcal/mol; ΔH obs ([22]; BRD3(2), 15°C): -4.62 ± 0.042 kcal/mol; N ([22]; BRD3(2), 15°C, single binding site model): 1.02 ± 0.006; Kd ([22]; KD, BRD3(2), 15°C, reverse titration): 513 ± 40.5 nM; Kd ([22]; binding affinity, second bromodomain in BRD3, rounded in text): 500 nM; TΔS ([23]; BRD4(1), 15°C): 0.01 kcal/mol; ΔG ([23]; BRD4(1), 15°C): -6.71 kcal/mol; ΔH obs ([23]; BRD4(1), 15°C): -6.71 ± 0.103 kcal/mol; N ([23]; BRD4(1), 15°C, single binding site model): 0.99 ± 0.011; Kd ([23]; KD, BRD4(1), 15°C, reverse titration): 2060 ± 141 nM; Kd ([23]; binding affinity, first bromodomain in BRD4, rounded in text): 2000 nM
Cc1sc2c(c1C)C(c1ccc(Cl)cc1)=NC(CC(=O)OC(C)(C)C)c1nnc(C)n1-2 (single isomer, unassigned; (+)) [(+)-JQ1, reference compound] | – | – | – | – | – | – | – | – | – | – | – | – | – | – | – | – | – | – | effect on apoA-I production [17]: very effective stimulator of apoA-I production
COCc1c(C(C)C)nc(C(C)C)c(/C=C/[C@@H](O)C[C@@H](O)CC(=O)O)c1-c1ccc(F)cc1 [Cerivastatin] | – | – | – | – | – | – | – | – | – | – | – | – | – | – | – | – | – | – | ATP level in human hepatocytes, reduction ([1]; 20 μM): 59 ± 10% reduction at 20 μM (n = 3); IC50 ([24]; ref CEREP Cytotoxicity Application Note): 660 nM; IC50 ([24]; ref CEREP study report 14547): 1100 nM; IC50 ([24]; ref O’Brien et al. Arch toxicol. 2006;80:580–604): 3000 nM; IC50 ([2]; Homo sapiens, HT-1080, 72 h): 2600 nM
C[C@]12CC[C@H]3[C@@H](CCC4=CC(=O)CC[C@@]43C)[C@@H]1CC[C@@H]2O [Testosterone, reference compound] | 64 | – | – | – | – | – | – | – | – | – | – | – | – | – | – | – | – | – | –
Cc1nnc2n1-c1sccc1C(c1ccccc1)=NC2 [MDCO-3760] | 105 | 0.1 | 2.6 | 1.9 | 2.8 | 0.4 | 3.2 | 0.1 | −0.1 | −4.7 | 2.2 | up to 3 fold | able to compete | able to compete | no effect at 100 μM (n = 3) | no effect at 100 μM (n = 5) | 3.0 | 2.7 | plasma levels of apoA-I [25]: increased
